In patent US7465576B2, “Method for treating periodontal disease with a bacteriocidal disinfectant” (priority 2004, dated 2008):
Read-outs that look alike come from different tables or passages of the source.

What was measured:
MRSA or E. coli O-157 = format: cell-based; conditions: organic substance exceeding 50 ppm
[1] = tested on: detached skin wounds of mice; test: Recovery from skin damage (Test Example 5); format: in vivo; conditions: applied to wound twice a day
Red worms = conditions: for Deaths: groups of 10 red worms
Experimental: Red worms with a mean length of 40 mm were prepared in groups of 10, the annuli of the red worms were severed with a cutter, and ordinary concentrations of the various bactericidal disinfectants contained in absorbent cotton were applied to the severed ends twice a day, morning and night. Application to the ends was continued even after the severed ends healed, and recovery and growth were observed. Water was applied as a control.

thumbnails of volunteers = test: Elongation of thumbnails (Test Example 7); format: in vivo, human; conditions: for Elongation of nails: Left (treated) thumbnail
Text: As a general rule the bacterial disinfectants were applied immediately after hand washing. Nail growth and shape are closely tied to individual physical condition, and are a benchmark of health.

[2] = tested on: plaque adhering to supragingival calculus; test: Viable cell numbers in plaque soaked in disinfectant (Test Example 4); format: cell-based; conditions: 60 minutes of immersion
[3] = tested on: putrefying bacteria in tofu (soybean curd); test: Viable cell numbers in prepared food after spraying (Test Example 3); format: cell-based
Text: (§1) With regards to the putrefaction process of prepared food, we investigated whether or not the present bactericidal disinfectant could stop the progress of putrefaction when sprayed of food, and the degree of that bactericidal effect. Normally disinfectants are not applied to prepared food, but very often scraps of food become lodged in a periodontal pocket, providing a nutritional source for bacteria, and since the present bactericidal disinfectant is composed of compounds which are recognized as food additives, it is important to assess these effects. Just-prepared cooked rice, tofu (soybean curd), spinach with sesame dressing, and fried meat and vegetables were each crushed, homogenized, and left at 28° C. for use as the samples. After samples had been left for 5 hours, part of each was taken and used to measure bacterial viable cell number, while the respective disinfectants were sprayed uniformly on the remaining samples. Viable cell numbers were measured 1, 2 and 24 hours after spraying. Water alone was sprayed as a control. After samples had been left for 24 hours part of each was taken for measuring viable cell number, and the respective disinfectants were sprayed uniformly on the remaining samples. As when the samples were left for 5 hours, viable cell numbers were measured 1 hour, 2 hours and 24 hours after spraying. Water alone was sprayed as a control. Viable cell numbers were measured by the poured plate method using 5 g of each sample diluted by ordinary methods.
(§2) The degree of putrefaction of course differs depending on the preparation method, ingredients and environment, but in the case of the cooked rice in this experiment, the viable cell number immediately after preparation was […] cells/g of sample, rising to 1×10^3 cells/g of sample after 5 hours, 5×10^5 cells/g of sample after 24 hours and 7×10^6 cells/g of sample after 48 hours. In the case of the tofu (soybean curd), the initial viable cell number was 2×10^4 cells/g of sample, rising to 8×10^5 cells/g of sample after 5 hours, 9×10^7 cells/g of sample after 24 hours, and 1×10^9 cells/g of sample after 48 hours, with considerable putrefaction. In the case of the spinach with sesame dressing, the viable cell number was 2×10^3 cells/g of sample immediately after preparation, rising to 5×10^4 cells/g of sample after 5 hours, 3×10^7 cells/g of sample after 24 hours and 2×10^8 cells/g of sample after 48 hours. In the case of the fried meat and vegetables, it was […] cells/g of sample immediately after preparation, rising to 2×10^3 cells/g of sample after 5 hours and 2×10^8 cells/g of sample after 24 hours, at which point there was a slight smell of putrefaction, while after 48 hours putrefaction has progressed still further and the viable cell number had risen to 3×10^9 cells/g of sample.

[4] = tested on: putrefying bacteria in spinach with sesame dressing; test: as above; format: cell-based
Text: as §1, §2

[5] = tested on: putrefying bacteria in fried meat and vegetables; test: as above; format: cell-based
Text: as §1, §2

[6] = tested on: putrefying bacteria in cooked rice; test: as above; format: cell-based
Text: as §1, §2

acid-fast bacteria = format: cell-based
[7] = tested on: spores of sporulating bacteria; format: cell-based
[8] = tested on: putrefying bacteria in prepared food; test: Viable cell numbers in prepared food after spraying (Test Example 3), summary; format: cell-based
Text: With regards to the putrefaction process of prepared food, we investigated whether or not the present bactericidal disinfectant could stop the progress of putrefaction when sprayed of food, and the degree of that bactericidal effect. Normally disinfectants are not applied to prepared food, but very often scraps of food become lodged in a periodontal pocket, providing a nutritional source for bacteria, and since the present bactericidal disinfectant is composed of compounds which are recognized as food additives, it is important to assess these effects. Just-prepared cooked rice, tofu (soybean curd), spinach with sesame dressing, and fried meat and vegetables were each crushed, homogenized, and left at 28° C. for use as the samples. […] Water alone was sprayed as a control. […] Water alone was sprayed as a control. […] Consequently, although complete eradication was not achieved, it can be said that bactericide was largely achieved. That is, there is the ability to halt development of putrefying bacteria in food and a bactericidal effect.

[9] = 5 days after severing, 20 mm when severed
[10] = sprayed after 5 hours, 1 hr after spraying
[11] = sprayed after 5 hours, 2 hrs after spraying
[12] = sprayed after 5 hours, 24 hrs after spraying
[13] = sprayed after 5 hours, just after spraying
[14] = sprayed after 24 hours, 1 hr after spraying
[15] = sprayed after 24 hours, 2 hrs after spraying
[16] = sprayed after 24 hours, 24 hrs after spraying
[17] = sprayed after 24 hours, just after spraying

CC(O)C(=O)O.CCOc1ccc2nc3cc(N)ccc3c(N)c2c1 [Acrinol, acrinol]
bactericidal effect in presence of organic substance (MRSA or E. coli O-157): A similar tendency was seen | Recovery: Complete recovery (coat grown back) [1]: 40 days | Recovery: Skin with roughly original thickness [1]: 15 days | Recovery: Thin skin overall [1]: 5 days | length of severed red worms (Red worms; [9]): 21 mm | length of severed red worms (Red worms; 10 days after severing): 22 mm | length of severed red worms (Red worms; 15 days after severing): 23 mm | length of severed red worms (Red worms; 20 days after severing): 24 mm | length of severed red worms (Red worms; 30 days after severing): 27 mm | length of severed red worms (Red worms; 40 days after severing): 29 mm | length of severed red worms (Red worms; 50 days after severing): 30 mm | Deaths (Red worms): 8 | Elongation of nails (thumbnails of volunteers; 10 days): 0.8 mm | Elongation of nails (thumbnails of volunteers; 20 days): 1.6 mm | Elongation of nails (thumbnails of volunteers; 30 days): 2.4 mm | Elongation of nails (thumbnails of volunteers; 40 days): 3.3 mm | Elongation of nails (thumbnails of volunteers; 50 days): 4.0 mm | Elongation of nails (thumbnails of volunteers; 60 days): 4.8 mm | survival of bacteria living inside plaque [2]: half survived

OO [3% aqueous hydrogen peroxide, hydrogen peroxide]
viable cell number [3, 10]: 2 × 10^3 cells/g of sample | viable cell number [3, 11]: 3 × 10^4 cells/g of sample | viable cell number [3, 12]: 6 × 10^6 cells/g of sample | viable cell number [3, 13]: 5 × 10^4 cells/g of sample | viable cell number [3, 14]: 3 × 10^4 cells/g of sample | viable cell number [3, 15]: 5 × 10^4 cells/g of sample | viable cell number [3, 16]: 1 × 10^8 cells/g of sample | viable cell number [3, 17]: 7 × 10^5 cells/g of sample | viable cell number [4, 10]: 4 × 10^2 cells/g of sample | viable cell number [4, 11]: 5 × 10^2 cells/g of sample | viable cell number [4, 12]: 1 × 10^5 cells/g of sample | viable cell number [4, 13]: 1 × 10^3 cells/g of sample | viable cell number [4, 14]: 5 × 10^3 cells/g of sample | viable cell number [4, 15]: 5 × 10^3 cells/g of sample | viable cell number [4, 16]: 7 × 10^6 cells/g of sample | viable cell number [4, 17]: 4 × 10^4 cells/g of sample | viable cell number [5, 10]: 2 × 10^2 cells/g of sample | viable cell number [5, 11]: 4 × 10^2 cells/g of sample | viable cell number [5, 12]: 5 × 10^6 cells/g of sample | viable cell number [5, 13]: 5 × 10^2 cells/g of sample | viable cell number [5, 14]: 5 × 10^4 cells/g of sample | viable cell number [5, 15]: 1 × 10^5 cells/g of sample | viable cell number [5, 16]: 4 × 10^8 cells/g of sample | viable cell number [5, 17]: 6 × 10^6 cells/g of sample | viable cell number [6, 10]: 1 × 10^2 cells/g of sample | viable cell number [6, 11]: 1.8 × 10^2 cells/g of sample | viable cell number [6, 12]: 5 × 10^4 cells/g of sample | viable cell number [6, 13]: 2 × 10^2 cells/g of sample | viable cell number [6, 14]: 9 × 10^3 cells/g of sample | viable cell number [6, 15]: 2 × 10^4 cells/g of sample | viable cell number [6, 16]: 8 × 10^5 cells/g of sample | viable cell number [6, 17]: 4 × 10^4 cells/g of sample | bactericidal effect in presence of organic substance (MRSA or E. coli O-157): A similar tendency was seen | Recovery: Complete recovery (coat grown back) [1]: 40 days | Recovery: Skin with roughly original thickness [1]: 15 days | Recovery: Thin skin overall [1]: 5 days | length of severed red worms (Red worms; [9]): 21 mm | length of severed red worms (Red worms; 10 days after severing): 22 mm | length of severed red worms (Red worms; 15 days after severing): 23 mm | length of severed red worms (Red worms; 20 days after severing): 24 mm | length of severed red worms (Red worms; 30 days after severing): 25 mm | length of severed red worms (Red worms; 40 days after severing): 27 mm | length of severed red worms (Red worms; 50 days after severing): 28 mm | Deaths (Red worms): 7 | time required to kill acid-fast bacteria (acid-fast bacteria): a minute or more | Elongation of nails (thumbnails of volunteers; 10 days): 0.9 mm | Elongation of nails (thumbnails of volunteers; 20 days): 1.8 mm | Elongation of nails (thumbnails of volunteers; 30 days): 2.7 mm | Elongation of nails (thumbnails of volunteers; 40 days): 3.6 mm | Elongation of nails (thumbnails of volunteers; 50 days): 4.5 mm | Elongation of nails (thumbnails of volunteers; 60 days): 5.4 mm | difference in elongation between right and left hands (thumbnails of volunteers; applied for 2 months): No significant differences in elongation | effect against spores [7]: ineffective | bactericidal effect on putrefying bacteria in food [8]: most of the bacteria survived immediately after spraying | survival of bacteria living inside plaque [2]: half survived
